{"source": "patent US20110217258A1", "about": "“Combined Use of Bendamustine, Doxorubicin and Bortezomib for the Treatment of Multiple Myeloma” (Indiana University Research and Technology Corporation, priority 2008, published 2011)", "test_system": "H929 and MM1R myeloma cell lines", "assay": "MTS cellular cytotoxicity assay, single agent", "format": "cell-based", "experimental": "H929 and MM1R myeloma cell lines were cultured in vitro and cellular cytotoxicity was measured by MTS ([3-(4,5-dimethylthiazol-2-yl)-5-(3-carboxymethoxyphenyl)-2-(4-sulfophenyl)-2H-tetrazolium, inner salt) assay. The effect of the combination in terms of additive, antagonistic, or synergistic activity was assessed by Valeriote and Lin's method (Valeriote and Lin, Cancer Chemother Rep 1975; 59:895-900). […] To test the effect of the combination of all three drugs, cells were cultured with bendamustine (15 μg/ml) and doxorubicin (0.03 μg/ml) for 48 hours, and bortezomib (2.5 nmol/L) was added in the last 24 hours, and cytotoxicity was assayed.", "data": [{"smiles": "Cl.Cn1c(CCCC(=O)O)nc2cc(N(CCCl)CCCl)ccc21", "note": "[bendamustine, 1H-benzimidazole-2-butanoic acid, 5-[bis(2-chloroethyl)amino]-1-methyl-, monohydrochloride]", "values": [{"measurement": "CC50", "setting": "48 h, read-out: concentration lethal to 50% of cells (LC50)", "result": "34.9 ± 3.4", "unit": "µg/mL"}, {"measurement": "MM cell death induced by drug alone", "setting": "bendamustine alone, repeated experiments", "result": "time and dose-dependent"}]}]}
